A word on the pIC50: it is −log10 of the IC50, conventionally taken in molar units.

The values that follow come from patent US9278981B2, “Compounds and compositions for inhibiting the activity of ABL1, ABL2 and BCR-ABL1” (Novartis AG, priority 2012, dated 2016).

The target in experiment [1] is T1, ABL1 (64-515) (Homo sapiens (Human), UniProt P00519). In words: Caliper ABL1 (64-515) assay (microfluidic mobility shift). Format: biochemical.
Experiment [2] concerns the target T1, ABL1 (64-515). In words: Radio ABL1 (64-515) assay (radiometric filter-binding). Format: biochemical.
Setting [3] is: comparison of ortho substitution on the R3/R4 ring.

pIC50: −log10 of the molar value.

T1 sequence (P00519 64-515): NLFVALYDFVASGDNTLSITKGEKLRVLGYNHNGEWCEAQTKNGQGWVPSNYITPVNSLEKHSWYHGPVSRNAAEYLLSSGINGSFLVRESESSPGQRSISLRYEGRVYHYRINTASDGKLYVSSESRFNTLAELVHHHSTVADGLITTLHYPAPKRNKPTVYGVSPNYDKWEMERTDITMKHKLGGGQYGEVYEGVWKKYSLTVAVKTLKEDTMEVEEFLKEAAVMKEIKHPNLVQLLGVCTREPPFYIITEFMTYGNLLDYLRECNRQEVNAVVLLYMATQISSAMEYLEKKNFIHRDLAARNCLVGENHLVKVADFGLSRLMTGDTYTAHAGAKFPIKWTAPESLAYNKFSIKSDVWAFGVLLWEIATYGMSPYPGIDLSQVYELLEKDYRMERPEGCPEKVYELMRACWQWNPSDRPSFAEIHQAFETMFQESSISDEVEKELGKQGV

`O=C(Nc1ccc(OC(F)(F)F)cc1Cl)c1cnc(N2CC[C@@H](O)C2)c(-c2cncnc2)c1`: the pIC50 on ABL1 (64-515) [1] (setting [3]) is 6.07.
Same read-out and setting: then `O=C(Nc1c(Cl)cc(OC(F)(F)F)cc1Cl)c1cnc(N2CC[C@@H](O)C2)c(-c2cncnc2)c1`, with less than 5.00.
Take `O=C(Nc1ccc(OC(F)(F)F)cc1)c1cnc(N2C[C@H](CO)[C@@H](O)C2)c(-c2cncc(F)c2)c1` (relative stereo) [Example 92, 5′-Fluoro-2-(trans-3-hydroxy-4-(hydroxymethyl)pyrrolidin-1-yl)-N-(4-(trifluoromethoxy)phenyl)-[3,3′-bipyridine]-5-carboxamide]: the results for the pIC50 on ABL1 (64-515) [2] and at ABL1 (64-515) [1] were 8.22 and 9.15, respectively.
The matching figures for `O=C(Nc1ccc(OC(F)(F)Cl)cc1)c1cnc(N2C[C@H](CO)[C@@H](O)C2)c(-c2cncnc2)c1` (relative stereo) [Example 250, N-(4-(Chlorodifluoromethoxy)phenyl)-6-(trans-3-hydroxy-4-(hydroxymethyl)pyrrolidin-1-yl)-5-(pyrimidin-5-yl)nicotinamide]: 9.00 and 8.89.
The matching figures for `CO[C@H]1CN(c2ncc(C(=O)Nc3ccc(OC(F)(F)F)cc3)cc2-c2cncc(F)c2)C[C@@H]1N` (relative stereo) [Example 286, 2-(trans-3-Amino-4-methoxypyrrolidin-1-yl)-5′-fluoro-N-(4-(trifluoromethoxy)phenyl)-[3,3′-bipyridine]-5-carboxamide]: 8.70 and 8.77.
The matching figures for `O=C(Nc1ccc(OC(F)(F)F)cc1)c1ccc(N2CC[C@@H](O)C2)c(-c2cccnc2)c1` [Example 5, (R)-4-(3-Hydroxypyrrolidin-1-yl)-3-(pyridin-3-yl)-N-(4-(trifluoromethoxy)phenyl)benzamide]: more than 8.52 and 8.57.
Regarding `O=C(Nc1ccc(OC(F)(F)F)cc1)c1ccc(N2C[C@H](O)[C@@H](O)C2)c(-c2cncnc2)c1` [Example 7, 4-((3S,4S)-3,4-Dihydroxypyrrolidin-1-yl)-3-(pyrimidin-5-yl)-N-(4-(trifluoromethoxy)phenyl)benzamide], the pIC50 is more than 8.52 on ABL1 (64-515) [2] and 8.92 on ABL1 (64-515) [1].
On to `O=C(Nc1ccc(OC(F)(F)F)cc1)c1ccc(N2C[C@H](O)[C@@H](O)C2)c(-c2cccnc2)c1` [Example 8, 4-((3S,4S)-3,4-Dihydroxypyrrolidin-1-yl)-3-(pyridin-3-yl)-N-(4-(trifluoromethoxy)phenyl)benzamide], for which the results for the pIC50 at ABL1 (64-515) [2] and at ABL1 (64-515) [1] were 7.89 and 8.55, respectively.
`Cc1ccc(-c2cc(C(=O)Nc3ccc(OC(F)(F)F)cc3)ccc2N2C[C@H](O)[C@@H](O)C2)cn1` [Example 9, 4-((3S,4S)-3,4-Dihydroxypyrrolidin-1-yl)-3-(6-methylpyridin-3-yl)-N-(4-(trifluoromethoxy)phenyl)benzamide]: the pIC50 on ABL1 (64-515) [2] was 7.77; at ABL1 (64-515) [1], 8.74.
For `O=C(Nc1ccc(OC(F)(F)F)cc1)c1ccc(N2C[C@@H](O)[C@@H](O)C2)c(-c2cncnc2)c1` [Example 10, 4-(cis-3,4-Dihydroxypyrrolidin-1-yl)-3-(pyrimidin-5-yl)-N-(4-(trifluoromethoxy)phenyl)benzamide], the results for the pIC50 at ABL1 (64-515) [2] and at ABL1 (64-515) [1] were 8.52 and 8.66, respectively.
`O=C(Nc1ccc(OC(F)(F)F)cc1)c1cnc(N2CC(O)C2)c(-c2cncnc2)c1` [Example 25]: the pIC50 at ABL1 (64-515) [2] was more than 8.52; at ABL1 (64-515) [1] it was 8.72.
The matching figures for `Cc1ccc(-c2cc(C(=O)Nc3ccc(OC(F)(F)F)cc3)cnc2N2CC[C@H](O)C2)cn1` [Example 34, (S)-2-(3-Hydroxypyrrolidin-1-yl)-6′-methyl-N-(4-(trifluoromethoxy)phenyl)-[3,3′-bipyridine]-5-carboxamide]: more than 8.52 and 9.10.
`Nc1ncc(-c2cc(C(=O)Nc3ccc(OC(F)(F)F)cc3)cnc2N2CC[C@@H](O)C2)cn1` [Example 38, (R)-5-(2-Aminopyrimidin-5-yl)-6-(3-hydroxypyrrolidin-1-yl)-N-(4-(trifluoromethoxy)phenyl)nicotinamide]: the negative-log IC50 (pIC50) at ABL1 (64-515) [2] is 8.40; at ABL1 (64-515) [1], 8.85.
The matching figures for `O=C(Nc1ccc(OC(F)(F)F)cc1)c1cnc(N2CC[C@@H](O)C2)c(-c2cccnc2)c1` [Example 39, (R)-2-(3-Hydroxypyrrolidin-1-yl)-N-(4-(trifluoromethoxy)phenyl)-[3,3′-bipyridine]-5-carboxamide]: more than 8.52 and 9.22.
The matching figures for `Cc1ccc(-c2cc(C(=O)Nc3ccc(OC(F)(F)F)cc3)cnc2N2CC[C@@H](O)C2)cn1` [Example 41, (R)-2-(3-Hydroxypyrrolidin-1-yl)-6′-methyl-N-(4-(trifluoromethoxy)phenyl)-[3,3′-bipyridine]-5-carboxamide]: more than 8.52 and 9.10.
As to `O=C(Nc1ccc(OC(F)(F)F)cc1)c1cnc(N2CC[C@@H](O)C2)c(-c2ccc(CO)nc2)c1` [Example 42, (R)-6′-(Hydroxymethyl)-2-(3-hydroxypyrrolidin-1-yl)-N-(4-(trifluoromethoxy)phenyl)-[3,3′-bipyridine]-5-carboxamide], the pIC50 at ABL1 (64-515) [2] was more than 8.52; on ABL1 (64-515) [1] it was 9.10.
The matching figures for `O=C(Nc1ccc(OC(F)(F)F)cc1)c1cnc(N2CC[C@@H](O)C2)c(-c2cncc(F)c2)c1` [Example 45, (R)-5′-Fluoro-2-(3-hydroxypyrrolidin-1-yl)-N-(4-(trifluoromethoxy)phenyl)-[3,3′-bipyridine]-5-carboxamide]: more than 8.52 and 8.96.
The matching figures for `O=C(Nc1ccc(OC(F)(F)F)cc1)c1cnc(N2CC[C@@H](O)C2)c(-c2ccc(F)nc2)c1` [Example 47, (R)-6′-Fluoro-2-(3-hydroxypyrrolidin-1-yl)-N-(4-(trifluoromethoxy)phenyl)-[3,3′-bipyridine]-5-carboxamide]: 8.52 and 8.92.
Consider `CN(C)CCCN(C)c1ncc(C(=O)Nc2ccc(OC(F)(F)F)cc2)cc1-c1cccnc1` [Example 168, 2-((3-(Dimethylamino)propyl)(methyl)amino)-N-(4-(trifluoromethoxy)phenyl)-[3,3′-bipyridine]-5-carboxamide], for which the pIC50 at ABL1 (64-515) [2] was more than 8.52.
As to `NC12CC1CN(c1ncc(C(=O)Nc3ccc(OC(F)(F)F)cc3)cc1-c1cncnc1)C2` (centres unmarked) [Example 226, 6-(1-Amino-3-azabicyclo[3.1.0]hexan-3-yl)-5-(pyrimidin-5-yl)-N-(4-(trifluoromethoxy)phenyl)nicotinamide], the pIC50 at ABL1 (64-515) [1] was 8.72.
Molecule `O=C(Nc1ccc(OC(F)(F)F)cc1)c1cnc(N2CC[C@@H](O)C2)c(-c2cncc(C(F)(F)F)c2)c1` [Example 234, (R)-2-(3-Hydroxypyrrolidin-1-yl)-N-(4-(trifluoromethoxy)phenyl)-5′-(trifluoromethyl)-[3,3′-bipyridine]-5-carboxamide] gave a pIC50 on ABL1 (64-515) [2] of 7.72.
Turning to `O=C(Nc1ccc(OC(F)(F)F)cc1)c1cnc(N2CC3CN(CCO)CC3C2)c(-c2cncnc2)c1` (centres unmarked) [Example 281, 6-(5-(2-Hydroxyethyl)hexahydropyrrolo[3,4-c]pyrrol-2(1H)-yl)-5-(pyrimidin-5-yl)-N-(4-(trifluoromethoxy)phenyl)nicotinamide], the pIC50 at ABL1 (64-515) [1] is 7.96.
Same read-out and setting: the same measure for `N#Cc1ccc(F)cc1-c1cc(C(=O)Nc2ccc(OC(F)(F)Cl)cc2)cnc1N1CC[C@@H](O)C1` [Example 287, (R)—N-(4-(Chlorodifluoromethoxy)phenyl)-5-(2-cyano-5-fluorophenyl)-6-(3-hydroxypyrrolidin-1-yl)nicotinamide]: 8.82.
The same measure, in the same setting: the same measure for `O=C(Nc1ccc(OC(F)(F)Cl)cc1)c1cnc(N2CC[C@@H](O)C2)c(-c2cc(F)cnc2Cl)c1` [Example 288, (R)-2′-Chloro-N-(4-(chlorodifluoromethoxy)phenyl)-5′-fluoro-2-(3-hydroxypyrrolidin-1-yl)-[3,3′-bipyridine]-5-carboxamide]: 9.00; for `Cc1ccncc1-c1cc(C(=O)Nc2ccc(OC(F)(F)Cl)cc2)cnc1N1CC[C@@H](O)C1` [Example 291, (R)—N-(4-(Chlorodifluoromethoxy)phenyl)-2-(3-hydroxypyrrolidin-1-yl)-4′-methyl-[3,3′-bipyridine]-5-carboxamide]: 9.70.
Still for that read-out and setting: then `N#Cc1ncc(F)cc1-c1cc(C(=O)Nc2ccc(OC(F)(F)Cl)cc2)cnc1N1CC[C@@H](O)C1` [Example 292, (R)—N-(4-(Chlorodifluoromethoxy)phenyl)-2′-cyano-5′-fluoro-2-(3-hydroxypyrrolidin-1-yl)-[3,3′-bipyridine]-5-carboxamide], with 9.30.
In the case of `N#Cc1cc(F)cc(-c2cc(C(=O)Nc3ccc(OC(F)(F)Cl)cc3)cnc2N2CC[C@@H](O)C2)c1` [Example 293, (R)—N-(4-(Chlorodifluoromethoxy)phenyl)-5-(3-cyano-5-fluorophenyl)-6-(3-hydroxypyrrolidin-1-yl)nicotinamide], the pIC50 on ABL1 (64-515) [1] was 9.15.
Same read-out and setting: then `Cc1ccc(F)cc1-c1cc(C(=O)Nc2ccc(OC(F)(F)Cl)cc2)cnc1N1CC[C@@H](O)C1` [Example 294, (R)—N-(4-(Chlorodifluoromethoxy)phenyl)-5-(5-fluoro-2-methylphenyl)-6-(3-hydroxypyrrolidin-1-yl)nicotinamide], with 8.52; and `N#Cc1ccc(F)c(-c2cc(C(=O)Nc3ccc(OC(F)(F)Cl)cc3)cnc2N2CC[C@@H](O)C2)c1` [Example 295, (R)—N-(4-(Chlorodifluoromethoxy)phenyl)-5-(5-cyano-2-fluorophenyl)-6-(3-hydroxypyrrolidin-1-yl)nicotinamide], with 9.15; and `Cc1ccc(F)cc1-c1cc(C(=O)Nc2ccc(OC(F)(F)Cl)cc2)cnc1N1C[C@H](O)[C@@H](O)C1` [Example 296, N-(4-(Chlorodifluoromethoxy)phenyl)-6-((3S,4S)-3,4-dihydroxypyrrolidin-1-yl)-5-(5-fluoro-2-methylphenyl)nicotinamide], with 9.00.
On the same count and under the same terms, the same measure for `COc1ncc(-c2cc(C(=O)Nc3ccc(OC(F)(F)Cl)cc3)cnc2N2CC[C@@H](O)C2)cc1C#N` [Example 299, (R)—N-(4-(Chlorodifluoromethoxy)phenyl)-5′-cyano-2-(3-hydroxypyrrolidin-1-yl)-6′-methoxy-[3,3′-bipyridine]-5-carboxamide]: 9.52.
